Positions of bridges follow the written chain, without caps; N, C: chain ends. Residues, ends and D or L forms follow the SMILES beside them. Chains are numbered I, II in the order given. *: point of attachment. FITC = O=C1OC2(c3ccc(O)cc3Oc3cc(O)ccc32)c2ccc(NC(=S)*)cc21
Assays:
CCL8_HUMAN = biological target: T1, CCL8_HUMAN (Homo sapiens, UniProt P80075); assay: Neutralisation of chemokine induced THP-1 cell migration; assay type: cell-based
T1 sequence (P80075 24-99): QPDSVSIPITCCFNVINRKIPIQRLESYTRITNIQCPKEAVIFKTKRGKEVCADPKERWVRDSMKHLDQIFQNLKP
Description: Table 1. Tick CKBPs described in PCT/GB2017/050563 and [17]. Tick peptide sequences isolated in yeast surface display fluorescent-activated cell sorting (FACS) screens using a labelled chemokine. Identity with Evasin-1, 4 or 3 was calculated using BLAST. Abbreviations: IXORI—Ixodes ricinus, RHISA—Rhipicephalus sanguineus, AMBMA—Amblyomma maculatum, AMBPA—Amblyomma parvum, AMBTR—Amblyomma triste, AMBAM—Amblyomma americanum, AMBCA—Amblyomma cajennense, RHIPU—Rhipicephalus pulchellus. Table 2A-C. Binding characteristics of tick CKBPs previously disclosed (PCT/GB2017/050563 and [17]). All members of the human chemokine family[164] are listed in column 1. Binding to human chemokines was determined for 14 tick CKBPs using biolayer interferometry (BLI) with calculated Kd shown as Molar (Moles/Litre). Binding data for 17 other novel tick CKBPs was assayed using yeast surface display[17,166],with positive binding results shown as “YES”. For biolayer interferometry, His-tagged purified tick CKBP was bound to a Ni-NINTA sensor on an OctetRed® 384 system, and then binding to each chemokine listed (with the exception of CCL25, CCL26, CXCL16, CXCL17, CXCL4L1, XCL2) was assayed in a cross-binding screen at a chemokine concentration of 300 nM as described. For those chemokines showing binding to a tick CKBP in the cross-binding screen, binding assays were repeated using different doses of chemokine. Association, equilibrium and dissociation data were analysed using Octet software to create corresponding fitted curves, and used to calculate Kd. For yeast surface display, (YSD) background fluorescence was controlled for by using either an empty vector or by omitting the chemokine (i.e. using streptavidin-Alexa647 alone). An arbitrary threshold of >3 fold over background mean fluorescence intensity was chosen to describe confirmed re-tests. Where binding was detected data are indicated as “YES”. […] For yeast surface display data, empty cells represent chemokines that were not tested. Binding data published in relation to previously described tick CKBPs (Evasins-1, 4 and 3) is also shown for comparison in each of FIGS. 2A-C, with the relevant data obtained from publications: [20-22,32]. Table 3: Neutralisation of human chemokines by tick CKBPs previously disclosed (PCT/GB2017/050563 and [17]). Neutralising activity was determined using a quantitative THP1 cell migration assay in a 96-well Boyden chamber with chemokine in the bottom chamber as described. Cells migrating through to the bottom chamber at 4 hours were counted using flow cytometry in a 96 well plate format. IC50 for neutralisation was determined at the chemokine EC80 dose as determined using a range of tick CKBP concentrations. Data was analysed using GraphPad Prism to determine IC50, which is shown as Molar (Moles/Litre). Empty cells represent experiments not done. Table 4—Other previously described tick CKBPs. Tick CKBPs that were also described in PCT/GB2017/050563 and Singh et al. are indicated in “Notes”. Table 5.—Novel tick CKBPs of the invention. Table 6. […] The peptide sequence prefix indicates the identity, and suffix indicate the tick species as follows: AMBCA, Amblyomma cajennense and IXORI, Ixodes ricinus. […] Individual yeast clones recovered from the library were re-tested using a FACS (fluorescence activated cell sorting), experiment. The binding of the peptide to the chemokine was assayed by measuring the percent (%), of yeast cells expressing the given peptide that exceeded a background threshold set by measuring the fluorescence of the yeast library pool treated with streptavidin-[…] alone. When more than one independent yeast clone was isolated for a given peptide-chemokine combination, the mean percent shift was calculated and reported in column 3.

human CCL8-647 = biological target: T2, human CCL8-647 (Homo sapiens, UniProt P80075); assay: Fluorescent chemokine binding to THP-1 cells (flow cytometry); assay type: cell-based
T2 construct: purchased Almac (UK)
T2 sequence (P80075 24-99): T1 sequence (P80075 24-99)
Description: P672_PEP_SCRAM (C-terminally amidated)=[…] FIG. 16(A). […] 60 μM (+) P672_PEP or P672_PEP_SCRAM were incubated with CCL8-647 (2.5 nM) for half an hour at 37° C. prior to adding to THP-1 cells and incubating everything together for a further half an hour at 37° C. Cells were then analysed using fluorescence assisted cell sorting (10,000 cells analysed) and MFI recorded. Experiment carried out in triplicate where each data point is the average of one experiment carried out in technical triplicate. Mean with SEM shown and statistical significance was determined using one-way ANOVA with Sidak's correction for multiple comparisons using Graph Pad Prism 6. ****=P<0.00005, ns=not significant.
Data are shown as mean of two technical replicates. […] Curves were fitted with 4 parameters to estimate IC50.
Fluorescent chemokine (conjugated to AlexaFluor-647) binding to THP-1 cells results in an increase in the cellular fluorescence intensity, which is quantitatively measured using flow cytometry.
Fluorescent Chemokine/Receptor Blocking Assay CCL8-647 (2.5 nM, final) or […] (1.2 nM, final) was incubated for 30 minutes with varying doses of peptide (0-100 μM, final concentration) in 50 μL assay buffer (RPMI-1640+L-glutamine (4 mM)+10% heat treated fetal bovine serum+0.2% DMSO) at 37° C. […]

CCL8 = biological target: T3, CCL8 (Homo sapiens, UniProt P80075); assay: Fluorescence polarisation (anisotropy) assay; assay type: binding; conditions: BK1.1FITC Ala mutants, CCL8
T3 construct: SUMO (in-house protein only) (cleaved yes); made in house; host or cells: Escherichia coli RosettaGami 2 (DE3)
T3 sequence (P80075 24-99): T1 sequence (P80075 24-99)
Text: FIG. 14. Characterisation of P672_PEP-FITC by fluorescence polarisation. […] Residue C30 was mutated to A to avoid an unpaired cysteine residue. The residues corresponding to the above peptide are wholly contained within the CCL8-binding region of P672_RHIPU transferred in the hybrid evasin P672:EVA1 (SEQ ID 76, see FIG. 5). […] (SEQ ID NO: 90). FIG. 14(A). […] The curve was fitted to the two site-total and non-specific binding model in GraphPad Prism 6. Data are shown as mean and SEM of three independent experiments, with each independent experiment performed as three technical replicates. The affinity constant Kd was calculated in GraphPad Prism from the curve fit with the standard error reported.
FIG. 14(B). […] The measured fluorescence anisotropy (y-axis) of P672_PEP-FITC (50 nM) following binding to a fixed dose (1 μM)) of CCL7, CCL8, CCL18 and CXCL1 (negative control). […] Statistical significance was determined using one-way ANOVA with Sidak's correction for multiple comparisons using Graph Pad Prism 6. **=p<0.005, ****=P<0.00005, ns=not significant.
FIG. 15(C). […] In each case 100 μM (++) or […] (+) of P672_PEP was incubated with P672_PEP-FITC (50 nM)/chemokine (1 μM CCL7 and CCL18; 500 nM CCL8) and the resulting anisotropy measured. […] Experiment carried out in triplicate where each data point is the average of one experiment carried out in technical triplicate. Mean with SEM shown and statistical significance was determined using one-way ANOVA with Sidak's correction for multiple comparisons using Graph Pad Prism 6. *=p<0.05, ***=p<0.0005, ****=P<0.00005, ns=not significant.
Fluorescence polarization assays were performed using a Clariostar (BMG Tech) plate reader with the supplied FITC excitation and emission filters using 96 half area well plates (Corning). The buffer used (FP assay buffer) was 50 mM HEPES, 150 mM NaCl, 0.1% BSA, 0.002% TWEEN-20, 0.2% DMSO, pH 7.4 and the final volume in each well was 30 μL. Polarization was converted to anisotropy using the equation A=(2*P)/(3−P) where P is polarization and A is anisotropy. For each peptide tested the gain was set to 35 mP and adjusted to a well containing fluorescent peptide only. The polarization of the emitted light in the FITC emission channel was then determined. Experiments were performed as two technical and three biological replicates. Screening of P672 peptide fragments was achieved through incubation of each peptide (50 nM) with 1 μM CCL8 (Peprotech) for 30 minutes in FP assay buffer and the resulting anisotropy of the emitted light determined as above. The chemokine cross binding screen was performed by incubating 1 μM chemokine (Peprotech) with 50 nM BK1.1FITC for half an hour in FP assay buffer and the resulting anisotropy of the emitted light determined as above. […] The anisotropy was plotted as a function of CCL8 concentration and fitted to the equation: Y=Bmax*X/(KD+X)+NS*X+Background, where Y is the measured anisotropy, X is the concentration of CCL8 added, Bmax is the maximum binding, KD is the equilibrium dissociation constant, NS is the slope of the nonlinear regression and Background is the anisotropy when no CCL8 is present, in Graph Pad Prism. Displacement assays were carried out with CCL7, CCL8, and CCL18 (Peprotech, 1 μM). […] For all FP assays, the experiments were carried out as two technical and three biological replicates.

SMILES | IC50 (CCL8_HUMAN) [nM] | IC50 (human CCL8-647) [nM] | Fold change (Kd versus WT) (CCL8)
CC(C)[C@H](NC(=O)[C@@H]1CCCN1C(=O)[C@H](CCCCN)NC(=O)[C@H](Cc1ccccc1)NC(=O)[C@H](Cc1ccccc1)NC(=O)[C@H](CC(=O)O)NC(=O)[C@H](CCC(=O)O)NC(=O)[C@H](Cc1ccc(O)cc1)NC(=O)[C@H](CC(=O)O)NC(=O)[C@H](CCC(=O)O)NC(=O)[C@H](CC(=O)O)NC(=O)[C@H](CCC(=O)O)NC(=O)[C@@H](N)Cc1ccc(O)cc1)C(=O)N[C@H](C(=O)N[C@@H](CSSC[C@H](NC(=O)[C@@H](NC(=O)[C@@H](NC(=O)[C@@H]1CCCN1C(=O)[C@H](CCCCN)NC(=O)[C@H](Cc1ccccc1)NC(=O)[C@H](Cc1ccccc1)NC(=O)[C@H](CC(=O)O)NC(=O)[C@H](CCC(=O)O)NC(=O)[C@H](Cc1ccc(O)cc1)NC(=O)[C@H](CC(=O)O)NC(=O)[C@H](CCC(=O)O)NC(=O)[C@H](CC(=O)O)NC(=O)[C@H](CCC(=O)O)NC(=O)[C@@H](N)Cc1ccc(O)cc1)C(C)C)[C@@H](C)O)C(=O)N[C@@H](Cc1ccc(O)cc1)C(=O)N[C@@H](Cc1ccccc1)C(N)=O)C(=O)N[C@@H](Cc1ccc(O)cc1)C(=O)N[C@@H](Cc1ccccc1)C(N)=O)[C@@H](C)O [BK1.3] (I: H-YEDEDYEDFFKPVTCYF-NH2 / II: H-YEDEDYEDFFKPVTCYF-NH2; disulfide I:15-II:15) | 8 | 47 | –
C[C@H](NC(=O)[C@@H](NC(=O)[C@H](C)NC(=O)[C@@H]1CCCN1C(=O)[C@H](CCCCN)NC(=O)[C@H](Cc1ccccc1)NC(=O)[C@H](Cc1ccccc1)NC(=O)[C@H](CC(=O)O)NC(=O)[C@H](CCC(=O)O)NC(=O)[C@H](Cc1ccc(O)cc1)NC(=O)[C@H](CC(=O)O)NC(=O)[C@H](CCC(=O)O)NC(=O)[C@H](CC(=O)O)NC(=O)[C@H](CCC(=O)O)NC(=S)Nc1ccc2c(c1)C(=O)OC21c2ccc(O)cc2Oc2cc(O)ccc21)[C@@H](C)O)C(=O)N[C@@H](Cc1ccc(O)cc1)C(=O)N[C@@H](Cc1ccccc1)C(N)=O [V28A] ({FITC}-EDEDYEDFFKPATAYF-NH2) | – | – | 3.8
CC(C)[C@H](NC(=O)[C@@H]1CCCN1C(=O)[C@H](CCCCN)NC(=O)[C@H](Cc1ccccc1)NC(=O)[C@H](Cc1ccccc1)NC(=O)[C@H](CC(=O)O)NC(=O)[C@H](CCC(=O)O)NC(=O)[C@H](C)NC(=O)[C@H](CC(=O)O)NC(=O)[C@H](CCC(=O)O)NC(=O)[C@H](CC(=O)O)NC(=O)[C@H](CCC(=O)O)NC(=S)Nc1ccc2c(c1)C(=O)OC21c2ccc(O)cc2Oc2cc(O)ccc21)C(=O)N[C@H](C(=O)N[C@@H](C)C(=O)N[C@@H](Cc1ccc(O)cc1)C(=O)N[C@@H](Cc1ccccc1)C(N)=O)[C@@H](C)O [Y21A] ({FITC}-EDEDAEDFFKPVTAYF-NH2) | – | – | 4.7
CC(C)[C@H](NC(=O)[C@@H]1CCCN1C(=O)[C@H](CCCCN)NC(=O)[C@H](Cc1ccccc1)NC(=O)[C@H](Cc1ccccc1)NC(=O)[C@H](CC(=O)O)NC(=O)[C@H](CCC(=O)O)NC(=O)[C@H](Cc1ccc(O)cc1)NC(=O)[C@H](CC(=O)O)NC(=O)[C@H](CCC(=O)O)NC(=O)[C@H](CC(=O)O)NC(=O)[C@H](CCC(=O)O)NC(=S)Nc1ccc2c(c1)C(=O)OC21c2ccc(O)cc2Oc2cc(O)ccc21)C(=O)N[C@H](C(=O)N[C@@H](C)C(=O)N[C@@H](C)C(=O)N[C@@H](Cc1ccccc1)C(N)=O)[C@@H](C)O [Y31A] ({FITC}-EDEDYEDFFKPVTAAF-NH2) | – | – | 3.8

Source: US20200247855A1, “THERAPY AND DIAGNOSTICS” (OXFORD UNIVERSITY INNOVATION LIMITED, priority 2017, published 2020)
